From patent publication US5278187A, “Pharmaceutical compositions” (British Technology Group Ltd., priority 1985, dated 1994) come the findings set out here.

Data set [1] concerns human mammary epithelial tumor cells (MCF7). As to the kind of experiment: Cytotoxic effect on MCF7 cells, colony formation in culture. It counts as cell-based. Particulars: dose required to reduce by 50% the number of colonies, 37° C., 12-14 days, read-out: ID50 MCF7. Here is the method: (§1) (A) The cytotoxic effects of a variety of compounds of formula (II) on human adenocarcinoma cells of the colon (LOVO) and human mammary epithelial tumor cells (MCF7) grown in culture were studied. A range of doses of the drugs was added on day one to replicate cultures of several hundred cells each, which were then incubated at 37° C. for 12-14 days. The cultures were then fixed and stained and the numbers of colonies per dish counted. The results obtained are shown in Table 1, the individual compounds being identified by the groups R1, R2 and R3 present therein, the last mentioned compound being the compound of formula (I) having R1 =H and R2 =CH3 which is used as a control. The results are expressed in terms of the ID50 which is the dose required to reduce by 50% the number of colonies growing up in the drug-treated cultures compared with untreated controls.

In data set [2] the test system is human adenocarcinoma cells of the colon (LOVO). As to the kind of experiment: Cytotoxic effect on LOVO cells, colony formation in culture. Format: cell-based. The following applies: dose required to reduce by 50% the number of colonies, 37° C., 12-14 days, read-out: ID50 LOVO. Here is the method: as §1
A short description of the next data set: Absorption by mouth. It counts as in vivo. The following applies: oral; in words.
The nature of the next data set: Water solubility. It counts as physicochemical. The text has this:
By modification of the nature of the ester groups it is possible to alter the water solubility, lipophilicity and rate of conversion to the active cytotoxic molecules (I). […] Similarly, increased lipophilicity may be obtained in these prodrugs by the introduction of, for example, hydrocarbon groupings such as isobutyl or benzyl and this is reflected by the relatively high Rf values in a 50% v/v chloroform/ethanol/SiO2 thin layer chromatography system as recorded in the Examples given hereinafter. An increased lipophilicity favours better absorption and changes in tissue distribution such as greater penetration of the central nervous system. The more lipophilic products are also the most attractive candidates for the percutaneous treatment of psoriasis. Further, depending upon whether R3 is an electron-withdrawing group, for example benzyl, propargyl or carbethoxymethyl, or an electron-repelling group, for example isobutyl, hydroxyethyl or methoxyethyl, the rate of conversion of the compound (II) to the corresponding compound (I) can be speeded up or slowed down. Thus, by providing some control over the water solubility, lipophilicity and rate of generation of the active species, the prodrug compounds of the present invention provide the ability to modify the tissue distribution and pharmacodynamics of the dioxopiperazine drugs with consequential therapeutic benefit to the patient.

The nature of data set [3]: Incubation under physiological conditions: formation of (I) from the 14C-labelled dimethyl ester and hydrolysis of the diimide (HPLC). Format: physicochemical. The following applies: pH 7.2, 37° C. Here is the method: (B) The rate of formation of the active antitumor agent (I) having R1 […] R2 =H from the corresponding ^14 C-labelled dimethyl ester (II) (R1 =R2 =H, R3 =CH3) following incubation under physiologically conditions, i.e. at 37° C. and pH and 7.2 in normal (0.15M) phosphate buffered saline [Practical Immunology, Hudson and hay (editors), Blackwell Scientific Publications, Second Edition, 1980, page 336] was studied. Sample of the incubation mixture were fractionated at different time intervals using HPLC with a reverse phase ODS column and an aqueous methanol gradient elution system.

The mark [4] stands for this setting: esters corresponding to the diimide (I) in which R1 =R2 =H, read-out: water solubilities.

Values after ≈ are worked out from the molar mass of the structure shown. Where two headings read alike, the source gives them in different places.

As to `C[C@H]([C@H](C)N(CC(N)=O)CC(=O)OCC(=O)O)N(CC(N)=O)CC(=O)OCC(=O)O` [R1=CH3, R2=CH3, R3=CH2 CO2 H, meso-NN'-Di-(carboxymethyloxycarbonylmethyl)-NN'-diaminocarbonylmethyl-2,3-diaminobutane], the IC50 came out at 1.1 µM in data set [1] and 0.2 µM in data set [2].

For the molecule `CC(CN(CC(N)=O)CC(=O)OCc1ccc([N+](=O)[O-])cc1)N(CC(N)=O)CC(=O)OCc1ccc([N+](=O)[O-])cc1` (racemic) [R1=CH3, R2=H, R3=p-NO2 --CH2 C6 H5, dl-NN'-Di-p-nitrobenzyloxycarbonylmethyl-NN'-diaminocarbonylmethyl-1,2-diaminopropane], the IC50 in data set [1] is 21 µM; in data set [2], 14 µM.

As to `CC(CN1CC(=O)NC(=O)C1)N1CC(=O)NC(=O)C1` (stereo not drawn) [R1=CH3, R2=H, cyclic imide, reference compound], the values for the IC50 in data set [1] and in data set [2] were 17 µM and 18 µM, respectively.

For `O=C1CN(CCN2CC(=O)NC(=O)C2)CC(=O)N1` [diimide (I) R1=R2=H, 1,2-bis-(3,5-dioxopiperazin-1-yl)ethane, reference compound], the absorption by mouth entry in “Absorption by mouth” is listed as “not being well absorbed by mouth”. In addition, the solubility in the data set “Water solubility” (20° C., pH 7.2, read-out: water solubility) was around 0.1 mg/mL (≈ 0.393 mM). The half-life in data set [3] (normal (0.15M) phosphate buffered saline, read-out: half life (hydrolysis to an inactive form) (converted)) was around 12 h.

Consider `NC(=O)CN(CCN(CC(N)=O)CC(=O)OCC(=O)O)CC(=O)OCC(=O)O` [R1=H, R2=H, R3=CH2 CO2 H, NN'-Di-(carboxymethyloxycarbonylmethyl)-NN'-diaminocarbonylmethyl-1,2-diamonoethane], for which the IC50 in data set [1] was 46 µM; in data set [2], 67 µM.

Take `CC(C)COC(=O)CN(CCN(CC(N)=O)CC(=O)OCC(C)C)CC(N)=O` [R1=H, R2=H, R3=CH2 CH(CH3)2, NN'-Di-isobutoxycarbonylmethyl-NN'-diaminocarbonylmethyl-1,2-diaminoethane]: the values for the IC50 in data set [1] and in data set [2] were 121 µM and 103 µM, respectively.

In the case of `COC(=O)CN(CCN(CC(N)=O)CC(=O)OC)CC(N)=O` [R1=H, R2=H, R3=CH3, NN'-Dimethoxycarbonylmethyl-NN'-diaminocarbonylmethyl-1,2-diaminoethane], the solubility in “Water solubility” (setting [4]) is above 20 mg/mL. The IC50 in data set [1] turned out to be 39 µM; in data set [2], 28 µM. For the same molecule, in data set [3] (0.15M phosphate buffered saline, the Figure, in words), the “formation of the active cytotoxic species (I) by cyclisation of the bis-ester” value is reported as “leads to a sustained concentration of the active cytotoxic species”.

Turning to `CCCCOCCOC(=O)CN(CCN(CC(N)=O)CC(=O)OCCOCCCC)CC(N)=O` [R1=H, R2=H, R3=CH2 CH2 O(CH2)3 CH3, NN'-Di-(2-n-butoxyethoxy)carbonylmethyl-NN'-diaminocarbonylmethyl-1,2-diaminoethane], the IC50 stood at 36 µM in data set [1] and 47 µM in data set [2].

In the case of `NC(=O)CN(CCN(CC(N)=O)CC(=O)OCCO)CC(=O)OCCO` [R1=H, R2=H, R3=CH2 CH2 OH, NN'-Di-(2-hydroxyethoxy)carbonylmethyl-NN'-diaminocarbonylmethyl-1,2-diaminoethane], the solubility in “Water solubility” (setting [4]) was above 20 mg/mL.

For the molecule `CC(CN(CC(N)=O)CC(=O)OCc1ccccc1[N+](=O)[O-])N(CC(N)=O)CC(=O)OCc1ccccc1[N+](=O)[O-]` (racemic) [R1=CH3, R2=H, R3=o-NO2 --CH2 C6 H5, dl-NN'-Di-o-nitrobenzyloxycarbonylmethyl)-NN'-diaminocarbonylmethyl-1,2-diaminopropane], the results for the IC50 in data set [1] and in data set [2] were 16 µM and 11 µM, respectively.

As to `CC(CN(CC(N)=O)CC(=O)OCc1ccccc1)N(CC(N)=O)CC(=O)OCc1ccccc1` (racemic) [R1=CH3, R2=H, R3=CH2 C6 H5, dl-NN'-Dibenzyloxycarbonylmethyl-NN'-diaminocarbonylmethyl-1,2-diaminopropane], the results for the IC50 in data set [1] and in data set [2] were 22 µM and 17 µM, respectively.
